Source: patent publication US8697840B2, “Peptide inhibition of lung epithelial apoptosis and pulmonary fibrosis” (Board of Regents, The University of Texas System, priority 2008, dated 2014)

What was measured:
[1] = system: primary small airway epithelial (SAE) cells; assay: SAE cell proliferation, DNA synthesis by [3H]-thymidine uptake; type: cell-based, human; settings: uPA between 5 and 20 nM; bleomycin 40 μg/ml as positive control
Procedure: FIGS. 2A-2B is a set of graphs showing dose-dependent induction of primary small airway epithelial (SAE) cell apoptosis and proliferation by uPA. FIG. 2A, SAE cells were treated for 48 h with 0-20 nM uPA at 37° C. Apoptotic cells were analyzed by flow cytometry using anti-annexin-V antibody and propidium iodide (PI). Bleo (40 μg/ml) was used as positive control (90). FIG. 2B, The cells were next treated with uPA as described in FIG. 1A and DNA synthesis was determined by [^3H]-thymidine uptake as described (5).

[2] = system: bleo-induced lung injury in the mouse; assay: Lung hydroxyproline (collagen deposition) after bleo-induced lung injury; type: in vivo; settings: for lung hydroxyproline levels: 50 μg Bleo intranasally, 10 mM peptide in 0.1 ml osmotic pump i.p. one day later, lungs after 21 days
Procedure: FIGS. 10A and 10B are graphs showing the effect of PP-1 on fibrosis following bleo-induced lung injury in the mouse. […] 24 h after bleo, 0.1 ml osmotic pump filled with 10 mM PP-1 (designated “Bleo+PP” in Figures) or CP1 control scrambled peptide (“Bleo+CP1”) were implanted intraperitoneally. Lungs were harvested after 21 days, homogenized and the homogenates were subjected to the analysis of hydroxyproline or desmosine levels.
Anesthetized mice received intranasal bleomycin HCl solution containing 40 μg/50μl in sterile saline solution. After 24 h, 7 days or 14 days 10 mM PP-1 (“Bleo+PP-1”) or control peptide (Bleo+CP-1) were given ip using a 0.1 ml osmotic pump. Mice were sacrificed and lungs excised 21 days later. Lung homogenates were analyzed for hydroxyproline. Results are expressed a % of control hydroxyproline concentration.
Anesthetized mice received intranasal bleomycin HCl solution containing 40 μg/50 μl in sterile saline solution. After day 7, 10 mM peptide PP-2 (“Bleo+PP-2”) or control peptide (“Bleo+CP-2) were given intraperitoneally using a 0.1 ml osmotic pump. Lungs were excised after 21 days, lungs were homogenized and the homogenates were analyzed for hydroxyproline. Results are expressed a % of control hydroxyproline concentration.
The hPro content of the whole mouse lungs tissues were measured using the technique of Woessner J F, 1961, Arch. Biochem. Biophys. 93:440-7). Lung tissue from each animal was homogenized in 1.0 ml of extraction buffer. One ml 12N HCl was added, and the samples were hydrolyzed at 110° C. for 24 h. After cooling, 5 μl of the samples were mixed with 5 μl of citrate-acetate buffer (5% citric acid, 1.2% glacial acetic acid, 7.25% sodium acetate and 3.4% sodium hydroxide) and 100 μl of chloramine-T solution (1.4% chloramine-T, 10% N-propanol, and 80% citrate acetate buffer) in 96 well plates. The mixture was incubated for 20 min at room temperature. A total of 100 μl of Ehrlich's solution (2.5 g p-dimethylaminobenzaldehyde added to 9.3 ml of n-propanol and 3.9 ml of 70% perchloric acid) was added to each well and the plates incubated at 65° C. for 18 min. The absorbance of each sample was measured at 550 nm. Standard curves were generated for each experiment using a known concentration of reagent hPro. Results were expressed as % changes in hPro content (with total hPro content of saline-treated control mouse lungs considered 100%).
Lungs were harvested after 21 days, homogenized and the homogenates were subjected to the analysis of hydroxyproline as above (FIG. 10A) or desmosine (FIG. 10B). The effect of PP-1 on fibrosis in bleo-induced mouse lung injury was evaluated. Mice were treated with saline or 50 μg Bleo intranasally were implanted one day later with, 0.1 ml osmotic pumps i.p. The pumps were filled with either 10 mM (2.92 mg/100 μl) PP-1 (“Bleo+PP-1”) or control scrambled peptide CP-1 (“Bleo+CP-1”).

[3] = system: bleo-induced collagen deposition in mouse lung; assay: Mason's Trichrome stain for collagen of lung sections of bleo-treated mice; type: in vivo; settings: for Collagen content in lung section: bleo-treated animals, peptide one day after bleo, day 21, trichrome stain
Procedure: FIG. 13 is a set of photomicrographs showing that PP-1 prevents bleo-induced collagen deposition in mouse lung. Mice were treated with bleo (50 μg/ml) by intranasal instillation followed by treatment with PP-1 (10 nM) or control peptide CP-1 on day 2. Lungs were excised on day 21, inflated and fixed in formalin, a sectioned into […] sections which were subjected to Mason's Trichrome stain (a three-color stain that stains cell nuclei red, collagen green or blue, and cytoplasm red). Blue staining indicates collagen deposition in bleo-treated lung sections.
FIGS. 14A & 14B is a series of photomicrographs of lung epithelial tissue stained with Mason's trichrome stain for collagen (FIG. 10A) and by TUNEL staining for apoptosis (FIG. 10B). Bleo-treated animals were instilled with either PP-1, PP-2 or control peptide CP-1 one day after bleo treatment, The lungs were removed on day 21, subjected to the staining procedures and examined for collagen accumulation or apoptosis.
Collagen deposition in mouse lung after bleo treatment was investigated. Mice were treated with bleo (50 μg/ml) by intranasal instillation followed by treatment with PP-1 (10 nM) (designated as PP in Figure) or control peptide CP-1 (designated CP in FIG. 13) on day 2. Lungs were excised on day 21, inflated and fixed in formalin, a sectioned into […] sections which were subjected to Mason's Trichrome stain (a three-color stain that stains cell nuclei red, collagen green or blue, and cytoplasm red).
A comparison was made of normal and bleo-treated lung, and the effect of PP-1 and PP-2 on the bleo-treated lungs were examined. Animals were treated with bleo and peptides as above. Lung tissue was removed at day 21 and stained with Mason's trichrome stain for collagen and subjected to TUNEL staining for apoptosis.

[4] = system: Src kinase; settings: Beas2B cells, bleo 40 μg/ml, 24 h, Western blot
Procedure: Cell lysates were analyzed for activating tyrosine (Y418) phosphorylation and inhibitory tyrosine (Y529) phosphorylation by Western blotting using phospho-specific antibodies. The same membrane was stripped and analyzed for total Src (Src-2) kinase and β-actin expression by Western blotting using specific antibodies.

[5] = system: PAI-1; assay: IHC of lung tissue of bleo-treated mice: PAI-1; type: in vivo, mouse; settings: bleomycin-treated mice, 24-72 h
Procedure: For immunohistochemical (IHC) analysis, lungs were inflated at constant pressure of 20 cm H2O, removed and fixed overnight in 2% paraformaldehyde in PBS. Tissue was dehydrated by passage through a standard alcohol series and was embedded in paraffin. 5 μm sections were deparaffinized with xylene followed by incubation with 100% and 95% alcohol. After 10 min of antigen retrieval, the slides were incubated with H2O2 for 30 min to quench endogenous peroxidase. Slides were incubated overnight with the respective antibodies in PBS containing 0.1% Tween 20 and further processed using Lab vision kit (Freemont Calif.).
An IHC study was conducted to analyze lung tissue for expression p53, uPA, uPAR, PAI-1 and cleaved caspase 3 (Table 2). […] These IHC observations were confirmed by Western blotting (see Example II and FIG. 5).

Substance	cell proliferation of SAE cells [1]	lung hydroxyproline levels [2]	Collagen content in lung section [3]	Src kinase activation (Y418 / Y529 phosphorylation) [4]	PAI-1 expression in lung tissue (IHC) [5]	bleomycin-induced collagen deposition (hydroxyproline, % of control) ([2]; bleomycin 40 μg/50 μl intranasal, 10 mM peptide i.p. osmotic pump after 24 h, 7 days or 14 days, lungs 21 days)	bleo-induced collagen deposition (Mason's Trichrome stain) ([3]; bleo 50 μg/ml intranasal, PP-1 (10 nM) on day 2, lungs day 21)	development of bleo-induced lung fibrosis ([3]; conclusion from Table 3, day 21)
Bleomycin	inhibited cell proliferation	significant increase in lung hydroxyproline or desmosine levels	Increased	Src kinase activation through phosphorylation of Src Y418	PAI-1 expression was also increased in bleomycin-treated mice beginning 24 h after treatment			
DGIWKASFTTFTVTKYWFYR [PP-1, residues 82-101 of human Cav-1, the caveolin-1 scaffolding domain]		significantly reduced, to normal levels	Normal	inhibited bleo-induced activation of Src Y418 through phosphorylation of Src Y529	reduced this PAI-1 expression	significantly inhibited bleomycin-induced collagen deposition and lung fibrosis	prevented bleo-induced collagen deposition	prevented the development of bleo-induced lung fibrosis
